Assay results taken from US11554171B2, “Compounds and methods for the targeted degradation of bromodomain-containing proteins” (Arvinas Operations, Inc., priority 2015, dated 2023).

System: c-myc in 22RV-1 cells
Assay: Human c-myc ELISA assay
Type: cell-based
Settings: Homo sapiens; for Emax: 22Rv1, 18 h, read-out: Degradation of BRD4: Maximum inhibition (%) c-Myc ELISA in 22RV1 cells; for DC50: 22Rv1, read-out: Degradation of BRD4: DC50 (uM) c-Myc ELISA in 22RV1 cells
Summary of the method: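 22RV-1 cells treated 18 h with 8-point 1:3 compound dilutions (final top 300 nM or 1 μM, 0.1% DMSO). Cells lysed in RIPA buffer with protease/phosphatase inhibitors, and c-myc protein in cleared lysate quantified by ELISA against a standard curve. DC50 reported for c-myc suppression.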

Row | SMILES | DC50 [µM] | Emax [%]
1 | Cc1ncsc1-c1ccc(CNC(=O)[C@@H]2C[C@@H](O)CN2C(=O)[C@H](C(C)C)n2cc(-c3cccc(O[C@@H](C)CNC(=O)C[C@@H]4N=C(c5ccc(Cl)cc5)c5c(sc(C)c5C)-n5c(C)nnc54)c3)cn2)cc1 [Example 199] | < 0.01 | 93
2 | Cc1ncsc1-c1ccc([C@H](C)NC(=O)[C@@H]2C[C@@H](O)CN2C(=O)[C@@H](NC(=O)CCc2cc(F)cc(O[C@@H](C)CNC(=O)C[C@@H]3N=C(c4ccc(Cl)cc4)c4c(sc(C)c4C)-n4c(C)nnc43)c2)C(C)(C)C)cc1 [Example 200] | < 0.01 | 96.5
3 | Cc1ncsc1-c1ccc([C@H](C)NC(=O)[C@@H]2C[C@@H](O)CN2C(=O)[C@@H](NC(=O)c2cc3cc(O[C@@H](C)CNC(=O)C[C@@H]4N=C(c5ccc(Cl)cc5)c5c(sc(C)c5C)-n5c(C)nnc54)ccc3o2)C(C)(C)C)cc1 [Example 205, (2S,4R)-1-[(2S)-2-[(5-{[(2S)-1-{2-[(9S)-7-(4-chlorophenyl)-4,5,13-trimethyl-3-thia-1,8,11,12-tetraazatricyclo[8.3.0.0^2,^6]trideca-2(6),4,7,10,12-pentaen-9-yl]acetamido}propan-2-yl]oxy}-1-benzofuran-2-yl)formamido]-3,3-dimethylbutanoyl]-4-hydroxy-N-[(1S)-1-[4-(4-methyl-1,3-thiazol-5-yl)phenyl]ethyl]pyrrolidine-2-carboxamide] | < 0.01 | 91
4 | Cc1ncsc1-c1ccc([C@H](C)NC(=O)[C@@H]2C[C@@H](O)CN2C(=O)[C@@H](NC(=O)c2cc3cc(O[C@H](C)CNC(=O)C[C@@H]4N=C(c5ccc(Cl)cc5)c5c(sc(C)c5C)-n5c(C)nnc54)ccc3o2)C(C)(C)C)cc1 [Example 206, (2S,4R)-1-[(2S)-2-[(5-{[(2R)-1-{2-[(9S)-7-(4-chlorophenyl)-4,5,13-trimethyl-3-thia-1,8,11,12-tetraazatricyclo[8.3.0.0^2,^6]trideca-2(6),4,7,10,12-pentaen-9-yl]acetamido}propan-2-yl]oxy}-1-benzofuran-2-yl)formamido]-3,3-dimethylbutanoyl]-4-hydroxy-N-[(1S)-1-[4-(4-methyl-1,3-thiazol-5-yl)phenyl]ethyl]pyrrolidine-2-carboxamide] | < 0.01 | 90

Second part, led by results:

Row | DC50 [µM] | SMILES | Emax [%]
5 | < 0.01 | Cc1ncsc1-c1ccc([C@H](C)NC(=O)[C@@H]2C[C@@H](O)CN2C(=O)[C@@H](NC(=O)/C=C/c2cc(F)cc(O[C@@H](C)CNC(=O)C[C@@H]3N=C(c4ccc(Cl)cc4)c4c(sc(C)c4C)-n4c(C)nnc43)c2)C(C)(C)C)cc1 [Example 201] | 94.1
6 | < 0.01 | Cc1ncsc1-c1ccc([C@H](C)NC(=O)[C@@H]2C[C@@H](O)CN2C(=O)[C@@H](NC(=O)/C=C/c2cc(F)cc(O[C@H](C)CNC(=O)C[C@@H]3N=C(c4ccc(Cl)cc4)c4c(sc(C)c4C)-n4c(C)nnc43)c2)C(C)(C)C)cc1 [Example 202] | 94
7 | < 0.01 | Cc1ncsc1-c1ccc([C@H](C)NC(=O)[C@@H]2C[C@@H](O)CN2C(=O)[C@@H](NC(=O)CCc2cc(F)cc(O[C@H](C)CNC(=O)C[C@@H]3N=C(c4ccc(Cl)cc4)c4c(sc(C)c4C)-n4c(C)nnc43)c2)C(C)(C)C)cc1 [Example 203] | 92
8 | 0.01 to 0.1 | Cc1ncsc1-c1ccc([C@H](C)NC(=O)[C@@H]2C[C@@H](O)CN2C(=O)[C@@H](NC(=O)Cc2cccc(O[C@H]3C[C@@H](NC(=O)C[C@@H]4N=C(c5ccc(Cl)cc5)c5c(sc(C)c5C)-n5c(C)nnc54)C3)c2)C(C)(C)C)cc1 [Example 204] | 88
